Laboratory results published in patent US6455540B1, “Methods of use of quinolone compounds against anaerobic pathogenic bacteria” (priority 1999, dated 2002).
≈ marks a conversion by molar mass, not a printed value.

Tests used:
Experiment in all cases: Agar dilution MIC
Bacteroides gracilis = type: cell-based, Bacteroides gracilis (Campylobacter gracilis); settings: 11 isolates
Clostridium dfficile = type: cell-based, Clostridium difficile; settings: Clostridium
Porphyromonas gingivalis = type: cell-based; settings: 13 isolates
[1] = system: Fusobacterium spp. group 2; type: cell-based, Fusobacterium mortiferum, necrogenes, ulcerans; settings: Fusobacterium, 12 isolates
Veillonella spp. = type: cell-based; settings: Veillonella, 24 isolates
[2] = system: Peptostreptococcus magnus; type: cell-based; settings: Finegoldia magna, 13 isolates
Clostridium inocuum = type: cell-based, Clostridium innocuum; settings: Clostridium, 11 isolates
[3] = system: Peptostreptococcus micros; type: cell-based; settings: 12 isolates
Actinomyces israelii = type: cell-based; settings: Actinomyces israelii, read-out: Minimal Inhibitory Concentration 50% (MIC50); 6 isolates
Bilophila wadsworthia = type: cell-based; settings: 16 isolates, agar supplemented with pyruvate
[4] = system: Prevotella buccae-oris group; type: cell-based; settings: 22 isolates
Bacteroides tectum = type: cell-based; settings: 22 isolates
Fusobacterium russii = type: cell-based; settings: Fusobacterium russii
[5] = system: Actinomyces odontolyticus; type: cell-based; settings: Schaalia odontolytica, 10 isolates
Clostridium ramosum = type: cell-based; settings: Thomasclavelia ramosa, 10 isolates
Prevotella bivia = type: cell-based; settings: Prevotella bivia, 21 isolates
Porphyromonas spp. = type: cell-based, Porphyromonas cangingivalis, cansulci, circumdentaria, levii; settings: 11 isolates
[6] = system: Prevotella heparinolytica; type: cell-based; settings: 16 isolates
[7] = system: Anaerobiospirillum thomasii; type: cell-based; settings: 13 isolates
Porphyromonas macaccae = type: cell-based; settings: 13 isolates
[8] = system: Peptostreptococcus asaccharolyticus; type: cell-based; settings: Peptoniphilus asaccharolyticus, 11 isolates
Bacteroides ureolyticus = type: cell-based; settings: 17 isolates
Porphyromonas canoris = type: cell-based; settings: 10 isolates
[9] = system: Porphyromonas asaccharolyticus; type: cell-based, Porphyromonas asaccharolytica; settings: Porphyromonas, 11 isolates
[10] = system: Anaerobiospirillum succiniciproducens; type: cell-based; settings: 3 isolates
Fusobacterium varium = type: cell-based; settings: Fusobacterium varium, 17 isolates
[11] = system: Peptostreptococcus prevotii; type: cell-based; settings: Anaerococcus prevotii, read-out: Minimal Inhibitory Concentration 50% (MIC50); 9 isolates
[12] = system: Clostridium clostridioforme; type: cell-based; settings: Clostridium, 11 isolates
[13] = system: Prevotella melaninogenica; type: cell-based; settings: 12 isolates
[14] = system: Fusobacterium spp group 1; type: cell-based; settings: Fusobacterium, 19 isolates
Prevotella intermedia = type: cell-based; settings: Prevotella intermedia, 11 isolates
[15] = system: Prevotella denticola/loeschii group; type: cell-based; settings: 6 isolates
[16] = read-out: Minimal Inhibitory Concentration 50% (MIC50)
[17] = read-out: Minimal Inhibitory Concentration 90% (MIC90)
[18] = Porphyromonas, read-out: Minimal Inhibitory Concentration 50% (MIC50)
[19] = Porphyromonas, read-out: Minimal Inhibitory Concentration 90% (MIC90)

For CC[C@H]1OC(=O)[C@H](C)[C@@H](O[C@H]2C[C@@](C)(OC)[C@@H](O)[C@H](C)O2)[C@H](C)[C@@H](O[C@@H]2O[C@H](C)C[C@H](N(C)C)[C@H]2O)[C@](C)(OC)C[C@@H](C)C(=O)[C@H](C)[C@@H](O)[C@]1(C)O [Clarithromycin], the “Minimal Inhibitory Concentration Range” value (Bacteroides gracilis) was 0.25 to 2 µg/mL, the MIC90 (Bacteroides gracilis; Campylobacter gracilis, read-out: Minimal Inhibitory Concentration 90% (MIC90)) was 1 mg/L (≈ 1.34 µM) and the MIC50 (Bacteroides gracilis; Campylobacter gracilis, read-out: Minimal Inhibitory Concentration 50% (MIC50)) was 1 mg/L (≈ 1.34 µM). The MIC50 (Clostridium dfficile; [16]) was 0.5 mg/L (≈ 0.668 µM), the MIC90 (Clostridium dfficile; read-out: Minimal Inhibitory Concentration 90% (MIC90), 14 isolates) was > 32 mg/L and the “Minimal Inhibitory Concentration Range” value (Porphyromonas gingivalis) was 0.06 to 0.125 µg/mL. The MIC50 (Porphyromonas gingivalis; Porphyromonas gingivalis, read-out: Minimal Inhibitory Concentration 50% (MIC50)) was 0.06 mg/L (≈ 0.0802 µM), the MIC90 (Porphyromonas gingivalis; Porphyromonas gingivalis, read-out: Minimal Inhibitory Concentration 90% (MIC90)) was 0.125 mg/L (≈ 0.167 µM) and the MIC50 [1, 16] was > 32 mg/L. The MIC90 [1, 17] was > 32 mg/L, the MIC90 (Veillonella spp.; [17]) was > 32 mg/L and the MIC50 (Veillonella spp.; [16]) was 16 mg/L (≈ 21.4 µM). The MIC50 [2, 16] was 2 mg/L (≈ 2.67 µM), the MIC90 [2, 17] was > 32 mg/L and the MIC90 (Clostridium inocuum; [17]) was > 32 mg/L. For the same molecule, the MIC50 (Clostridium inocuum; [16]) was > 32 mg/L, the “Minimal Inhibitory Concentration Range” value [3] was 0.6 µg/mL and the MIC50 ([3]; Parvimonas micra, read-out: Minimal Inhibitory Concentration 50% (MIC50)) was 0.5 mg/L (≈ 0.668 µM). The MIC90 ([3]; Parvimonas micra, read-out: Minimal Inhibitory Concentration 90% (MIC90)) was 0.5 mg/L (≈ 0.668 µM), the MIC50 (Actinomyces israelii) was ≤ 0.015 mg/L and the “Minimal Inhibitory Concentration Range” value (Bilophila wadsworthia) was 4 to 32 µg/mL. For the same molecule, the MIC90 (Bilophila wadsworthia; Bilophila wadsworthia, read-out: Minimal Inhibitory Concentration 90% (MIC90)) was 32 mg/L (≈ 42.8 µM), the MIC50 (Bilophila wadsworthia; Bilophila wadsworthia, read-out: Minimal Inhibitory Concentration 50% (MIC50)) was 16 mg/L (≈ 21.4 µM) and the “Minimal Inhibitory Concentration Range” value [4] was 0.06 to 1 µg/mL. The MIC90 ([4]; Prevotella, read-out: Minimal Inhibitory Concentration 90% (MIC90)) was 0.25 mg/L (≈ 0.334 µM), the MIC50 ([4]; Prevotella, read-out: Minimal Inhibitory Concentration 50% (MIC50)) was 0.125 mg/L (≈ 0.167 µM) and the “Minimal Inhibitory Concentration Range” value (Bacteroides tectum) was 0.125 µg/mL. It also gave an MIC90 (Bacteroides tectum; Bacteroides pyogenes, read-out: Minimal Inhibitory Concentration 90% (MIC90)) of 0.125 mg/L (≈ 0.167 µM), an MIC50 (Bacteroides tectum; Bacteroides pyogenes, read-out: Minimal Inhibitory Concentration 50% (MIC50)) of 0.125 mg/L (≈ 0.167 µM) and an MIC50 (Fusobacterium russii; [16]) of 4 mg/L (≈ 5.35 µM). For the same molecule, the MIC90 (Fusobacterium russii; [17]) was > 32 mg/L, the MIC90 [5, 17] was ≤ 0.015 mg/L and the MIC50 [5, 16] was ≤ 0.015 mg/L. For the same molecule, the MIC50 (Clostridium ramosum; [16]) was 0.5 mg/L (≈ 0.668 µM), the MIC90 (Clostridium ramosum; [17]) was > 32 mg/L and the MIC90 (Prevotella bivia; [17]) was 0.25 mg/L (≈ 0.334 µM). For the same molecule, the MIC50 (Prevotella bivia; [16]) was 0.125 mg/L (≈ 0.167 µM), the “Minimal Inhibitory Concentration Range” value (Porphyromonas spp.) was 0.06 to 0.125 µg/mL and the MIC50 (Porphyromonas spp.; [18]) was 0.06 mg/L (≈ 0.0802 µM). For the same molecule, the MIC90 (Porphyromonas spp.; [19]) was 0.125 mg/L (≈ 0.167 µM), the “Minimal Inhibitory Concentration Range” value [6] was 0.06 to 0.125 µg/mL and the MIC90 ([6]; Prevotella heparinolytica, read-out: Minimal Inhibitory Concentration 90% (MIC90)) was 0.125 mg/L (≈ 0.167 µM). For the same molecule, the MIC50 ([6]; Prevotella heparinolytica, read-out: Minimal Inhibitory Concentration 50% (MIC50)) was 0.125 mg/L (≈ 0.167 µM), the “Minimal Inhibitory Concentration Range” value [7] was 2 to 32 µg/mL and the MIC50 ([7]; Anaerobiospirillum thomasii, read-out: Minimal Inhibitory Concentration 50% (MIC50)) was 4 mg/L (≈ 5.35 µM). The MIC90 ([7]; Anaerobiospirillum thomasii, read-out: Minimal Inhibitory Concentration 90% (MIC90)) was 16 mg/L (≈ 21.4 µM), the “Minimal Inhibitory Concentration Range” value (Porphyromonas macaccae) was 0.06 to 0.125 µg/mL and the MIC50 (Porphyromonas macaccae; [18]) was 0.125 mg/L (≈ 0.167 µM). For the same molecule, the MIC90 (Porphyromonas macaccae; [19]) was 0.125 mg/L (≈ 0.167 µM), the MIC50 [8, 16] was 2 mg/L (≈ 2.67 µM) and the MIC90 [8, 17] was > 32 mg/L. For the same molecule, the “Minimal Inhibitory Concentration Range” value (Bacteroides ureolyticus) was 0.125 to 4 µg/mL, the MIC90 (Bacteroides ureolyticus; Campylobacter ureolyticus, read-out: Minimal Inhibitory Concentration 90% (MIC90)) was 2 mg/L (≈ 2.67 µM) and the MIC50 (Bacteroides ureolyticus; Campylobacter ureolyticus, read-out: Minimal Inhibitory Concentration 50% (MIC50)) was 0.5 mg/L (≈ 0.668 µM). For the same molecule, the “Minimal Inhibitory Concentration Range” value (Porphyromonas canoris) was 0.06 to 0.125 µg/mL, the MIC50 (Porphyromonas canoris; Porphyromonas canoris, read-out: Minimal Inhibitory Concentration 50% (MIC50)) was 0.06 mg/L (≈ 0.0802 µM) and the MIC90 (Porphyromonas canoris; Porphyromonas canoris, read-out: Minimal Inhibitory Concentration 90% (MIC90)) was 0.125 mg/L (≈ 0.167 µM). For the same molecule, the MIC50 [9, 16] was 0.06 mg/L (≈ 0.0802 µM), the MIC90 [9, 17] was > 32 mg/L and the “Minimal Inhibitory Concentration Range” value [10] was 8 to 32 µg/mL. For the same molecule, the MIC50 ([10]; Anaerobiospirillum succiniciproducens, read-out: Minimal Inhibitory Concentration 50% (MIC50)) was 32 mg/L (≈ 42.8 µM), the MIC50 (Fusobacterium varium; [16]) was > 32 mg/L and the MIC90 (Fusobacterium varium; [17]) was > 32 mg/L. The MIC50 [11] was > 32 mg/L, the MIC90 [12, 17] was > 32 mg/L and the MIC50 [12, 16] was 4 mg/L (≈ 5.35 µM). The “Minimal Inhibitory Concentration Range” value [13] was 0.06 to 4 µg/mL, the MIC90 ([13]; Prevotella melaninogenica, read-out: Minimal Inhibitory Concentration 90% (MIC90)) was 1 mg/L (≈ 1.34 µM) and the MIC50 ([13]; Prevotella melaninogenica, read-out: Minimal Inhibitory Concentration 50% (MIC50)) was 0.125 mg/L (≈ 0.167 µM). It also gave an MIC50 ([14]; GROUP1, read-out: Minimal Inhibitory Concentration 50% (MIC50)) of 8 mg/L (≈ 10.7 µM), an MIC90 ([14]; GROUP1, read-out: Minimal Inhibitory Concentration 90% (MIC90)) of 32 mg/L (≈ 42.8 µM) and an MIC90 (Prevotella intermedia; [17]) of 0.125 mg/L (≈ 0.167 µM). For the same molecule, the MIC50 (Prevotella intermedia; [16]) was ≤ 0.015 mg/L, the “Minimal Inhibitory Concentration Range” value [15] was 0.03 to 2 µg/mL and the MIC50 ([15]; Prevotella denticola, read-out: Minimal Inhibitory Concentration 50% (MIC50)) was 0.06 mg/L (≈ 0.0802 µM).
